According to US20090155209A1, “NOVEL MACROCYCLIC INHIBITORS OF HEPATITIS C VIRUS REPLICATION” (priority 2007, published 2009):

Assays:
NS3-NS4 [1] = biological target: T1, NS3-NS4 (Hepatitis C virus genotype 1a, UniProt P27958); assay: cell-based; conditions: EC50, NS3-NS4 activity
NS3-NS4 [2] = biological target: T1, NS3-NS4; assay: NS3-NS4 activity, IC50 (Example 37, Table 8); type: biochemical

T1 sequence (P27958 1027-1657): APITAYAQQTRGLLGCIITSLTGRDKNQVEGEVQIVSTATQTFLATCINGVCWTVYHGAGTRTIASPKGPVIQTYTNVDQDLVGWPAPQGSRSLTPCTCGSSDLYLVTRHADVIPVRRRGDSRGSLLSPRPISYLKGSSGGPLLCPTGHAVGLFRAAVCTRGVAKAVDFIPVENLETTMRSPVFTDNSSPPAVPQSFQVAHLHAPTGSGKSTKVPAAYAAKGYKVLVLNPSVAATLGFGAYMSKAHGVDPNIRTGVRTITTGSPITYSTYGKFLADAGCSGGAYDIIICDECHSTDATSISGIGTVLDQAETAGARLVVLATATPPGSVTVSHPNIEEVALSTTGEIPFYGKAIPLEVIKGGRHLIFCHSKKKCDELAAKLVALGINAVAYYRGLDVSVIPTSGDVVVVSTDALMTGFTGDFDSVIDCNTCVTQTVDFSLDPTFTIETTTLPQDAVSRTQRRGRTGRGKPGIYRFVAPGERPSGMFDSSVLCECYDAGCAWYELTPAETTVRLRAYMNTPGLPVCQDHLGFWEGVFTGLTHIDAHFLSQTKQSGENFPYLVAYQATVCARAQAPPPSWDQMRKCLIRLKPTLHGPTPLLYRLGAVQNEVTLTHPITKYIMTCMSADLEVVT
T1 sequence (P27958 1658-1711): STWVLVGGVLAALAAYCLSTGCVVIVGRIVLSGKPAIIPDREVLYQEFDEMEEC

| Structure (SMILES) | EC50 (NS3-NS4 [1]) [µM] | IC50 (NS3-NS4 [2]) [µM] |
| --- | --- | --- |
| CC(C)(C)OC(=O)N[C@H]1CCCCC/C=C\[C@@H]2C[C@@]2(C(=O)NS(=O)(=O)c2cccc(Cl)c2)NC(=O)[C@@H]2C[C@@H](OC(=O)N3Cc4cccc(F)c4C3)CN2C1=O [Compound 353] | < 0.1 | < 0.1 |
| CC1(COC(=O)N[C@H]2CCCCC/C=C\[C@@H]3C[C@@]3(C(=O)NS(=O)(=O)C3CC3)NC(=O)[C@@H]3C[C@@H](OC(=O)N4Cc5cccc(F)c5C4)CN3C2=O)CC1 [Compound 435] | < 0.1 | < 0.1 |
| CC(C)(C)OC(=O)N[C@H]1CCCCC/C=C\[C@@H]2C[C@@]2(C(=O)NS(=O)(=O)c2cc(F)cc(F)c2)NC(=O)[C@@H]2C[C@@H](OC(=O)N3Cc4cccc(F)c4C3)CN2C1=O [Compound 309] | < 0.1 | < 0.1 |
| CC(C)(C)OC(=O)N[C@H]1CCCCC/C=C\[C@@H]2C[C@@]2(C(=O)NS(=O)(=O)c2cc(Cl)ccc2Cl)NC(=O)[C@@H]2C[C@@H](OC(=O)N3Cc4cccc(F)c4C3)CN2C1=O [Compound 316] | < 0.1 | < 0.1 |
| CC(C)(C)OC(=O)N[C@H]1CCCCC/C=C\[C@@H]2C[C@@]2(C(=O)NS(=O)(=O)Cc2ccc(F)cc2)NC(=O)[C@@H]2C[C@@H](OC(=O)N3Cc4cccc(F)c4C3)CN2C1=O [Compound 509] | 0.1 to 1 | < 0.1 |
| O=C1N[C@]2(C(=O)NS(=O)(=O)C3CC3)C[C@H]2/C=C\CCCCC[C@H](NC(=O)N2CCCCC2)C(=O)N2C[C@H](OC(=O)N3Cc4cccc(F)c4C3)C[C@@H]12 [Compound 415] | < 0.1 | < 0.1 |
| COc1csc(S(=O)(=O)NC(=O)[C@@]23C[C@H]2/C=C\CCCCC[C@H](NC(=O)OC(C)(C)C)C(=O)N2C[C@H](OC(=O)N4Cc5cccc(F)c5C4)C[C@H]2C(=O)N3)c1 [Compound 541] | < 0.1 | < 0.1 |
| CC(C)ONC(=O)[C@@]12C[C@H]1/C=C\CCCCC[C@H](NC(=O)OC(C)(C)C)C(=O)N1C[C@H](OC(=O)N3Cc4cccc(F)c4C3)C[C@H]1C(=O)N2 [Compound 718] | < 0.1 | < 0.1 |
| Cc1cc(C)cc(ONC(=O)[C@@]23C[C@H]2/C=C\CCCCC[C@H](NC(=O)OC(C)(C)C)C(=O)N2C[C@H](OC(=O)N4Cc5cccc(F)c5C4)C[C@H]2C(=O)N3)c1 [Compound 715] | 1 to 10 | < 0.1 |
| Cc1ccc(S(=O)(=O)NC(=O)[C@@]23C[C@H]2/C=C\CCCCC[C@H](NC(=O)OC(C)(C)C)C(=O)N2C[C@H](OC(=O)N4Cc5cccc(F)c5C4)C[C@H]2C(=O)N3)s1 [Compound 538] | < 0.1 | < 0.1 |
| Cc1cc(S(=O)(=O)NC(=O)[C@@]23C[C@H]2/C=C\CCCCC[C@H](NC(=O)OC(C)(C)C)C(=O)N2C[C@H](OC(=O)N4Cc5cccc(F)c5C4)C[C@H]2C(=O)N3)c(C)s1 [Compound 302, (2R,6S,13aS,14aR,16aS,Z)-6-(tert-butoxycarbonylamino)-14a-(2,5-dimethylthiophen-3-ylsulfonylcarbamoyl)-5,16-dioxo-1,2,3,5,6,7,8,9,10,11,13a,14,14a,15,16,16a-hexadecahydrocyclopropa[e]pyrrolo[1,2-a][1,4]diazacyclopentadecin-2-yl 4-fluoroisoindoline-2-carboxylate] | < 0.1 | < 0.1 |
| Cc1cccc(CS(=O)(=O)NC(=O)[C@@]23C[C@H]2/C=C\CCCCC[C@H](NC(=O)OC(C)(C)C)C(=O)N2C[C@H](OC(=O)N4Cc5cccc(F)c5C4)C[C@H]2C(=O)N3)c1 [Compound 514] | 0.1 to 1 | < 0.1 |
| Cc1cc(S(=O)(=O)NC(=O)[C@@]23C[C@H]2/C=C\CCCCC[C@H](NC(=O)OC(C)(C)C)C(=O)N2C[C@H](OC(=O)N4Cc5cccc(F)c5C4)C[C@H]2C(=O)N3)oc1C [Compound 534] | 0.1 to 1 | < 0.1 |
| CCC1(S(=O)(=O)NC(=O)[C@@]23C[C@H]2CCCCCCC[C@H](NC(=O)OC(C)(C)C)C(=O)N2C[C@H](OC(=O)N4Cc5cccc(F)c5C4)C[C@H]2C(=O)N3)CC1 [Compound 650] | < 0.1 | < 0.1 |
| CC(C)(C)OC(=O)N[C@H]1CCCCC/C=C\[C@@H]2C[C@@]2(C(=O)NS(=O)(=O)Cc2ccc(C(F)(F)F)cc2)NC(=O)[C@@H]2C[C@@H](OC(=O)N3Cc4cccc(F)c4C3)CN2C1=O [Compound 519] | 0.1 to 1 | < 0.1 |
| CC(C)(C)OC(=O)N[C@H]1CCOCC/C=C\[C@@H]2C[C@@]2(C(=O)NS(=O)(=O)c2cc(Cl)sc2Cl)NC(=O)[C@@H]2C[C@@H](OC(=O)N3Cc4cccc(Cl)c4C3)CN2C1=O [Compound 322, (2R,6S,13aS,14aR,16aS,Z)-6-(tert-butoxycarbonylamino)-14a-(2,5-dichlorothiophen-3-ylsulfonylcarbamoyl)-5,16-dioxo-2,3,5,6,7,8,10,11,13a,14,14a,15,16,16a-tetradecahydro-1H-cyclopropa[j]pyrrolo[1,2-f][1,6,9]oxadiazacyclopentadecin-2-yl 4-chloroisoindoline-2-carboxylate] | < 0.1 | < 0.1 |
| CC(C)(C)OC(=O)N[C@H]1CCCCCCC[C@@H]2C[C@@]2(C(=O)NS(=O)(=O)c2ccccc2)NC(=O)[C@@H]2C[C@@H](OC(=O)N3Cc4cccc(F)c4C3)CN2C1=O [Compound 601] | < 0.1 | < 0.1 |
